# Test system: Genetic Absence Epilepsy Rat from Strasbourg (GAERS)
# Assay: Spike-and-wave discharges (EEG) in GAERS
# Type: in vivo
# Experimental: GAERS experiments were conducted in accordance with the standards of the Canadian Council on Animal Care and approved by the University of Saskatchewan Animal Research Ethics Board (protocol 20130118). GAERS were initially sourced from the University of Melbourne to establish a Canadian GAERS colony in 2010 ([Powell et al., 2014]) and weanlings were provided by the Snutch Laboratory at the University of British Columbia to the University of Saskatchewan in 2013 (snutchlab.msl.ubc.ca) ([Marks et al., 2016]; [Marks et al., 2019]). GAERS were maintained on a 12 h light/dark cycle with lights on at 0700 and access to food and water ad libitum except during EEG recordings.
# GAERS display reliable spike and wave discharges (SWD) characteristic of childhood absence epilepsy (CAE) ([Tringham et al., 2012]; [Marks et al., 2019]; [Roebuck et al., 2021]; [McElroy et al., 2022]; [Roebuck et al., 2022]). Experiments were conducted in male (n = 11; two removed due to poor recording integrity) and female (n = 5) GAERS. Group sizes were determined based on previous experiments and availability of age, sex, and litter matched animals ([Marks et al., 2019]; [McElroy et al., 2022]; [Roebuck et al., 2022]). Animals were well handled and habituated to the recording protocol prior to testing. Baseline recordings were performed prior to sessions with drug treatment and SB2193 (10, 30, 100 mg/kg) or vehicle (5 mL/kg) was administered (i.p.) ∼15–20 min prior to recordings using a within-subjects design (5–7 days washout periods between treatments). SB2193 was freshly prepared in ethanol-Kolliphor (Sigma Aldrich)-saline (1:1:18 ratio).
# Construction and implantation of electrodes proceeded according to established protocols ([Farrell et al., 2018]; [Marks et al., 2019]; [McElroy et al., 2022]; [Roebuck et al., 2022]). Surgeries were performed under isoflurane anaesthesia with buprenorphine, anafen, and bupivicaine (topical) used as analgesics. Bipolar electrodes were chronically implanted bilaterally in somatosensory cortex (A/P 0.6 mm, M/L 5.5 mm, D/V −3.0 mm, relative to bregma) ([Polack et al., 2007]). Implants were secured with 3.2 mm stainless steel screws (one served as a ground) and dental cement. Animals were given a 1-week recovery period before habituation and testing.
# Following recovery from surgery, animals were handled for 3–4 days and habituated to the EEG tether and hook-up process at least once before baseline recordings. Local field potentials (LFP) were acquired by tethered EEG (Grass Technologies), amplified 5,000x, and digitized at 100 Hz ([Farrell et al., 2018]; [Marks et al., 2019]; [McElroy et al., 2022]; [Roebuck et al., 2022]). Recordings (4 h) were conducted in two clear Plexiglas boxes (32 cm × 32 cm) and treatments were randomized such that each animal received each treatment. During recording sessions, animals were prevented from sleeping with gentle taps on the chamber door as necessary. Animals were perfused to confirm electrode placement following testing.
# SWDs were analysed using a custom MATLAB (MathWorks) script developed by Dr. Stuart Cain and Jeff LeDue at the University of British Columbia. SWDs were assessed between 7 and 12 Hz and defined as bursts > 3x baseline amplitude >0.5 s as previously described ([Powell et al., 2014]; [Farrell et al., 2018]; [Marks et al., 2019]; [Roebuck et al., 2021]; [McElroy et al., 2022]; [Roebuck et al., 2022]). SWDs were analysed semi-automatically using Matlab and manually confirmed by a researcher blinded to treatment. A second researcher re-analysed a subset of files and interrater reliability was confirmed. Treatment data are normalized to initial non-treatment baseline data (e.g., % change) to account for SWD variability between subjects. Raw SWD data are also reported for comparison.
# Time-binned data were analysed using a two-way analysis of variance (ANOVA) with factors of treatment (vehicle, 10, 30, 100 mg/kg SB2193) and time (1, 2, 3, 4 h post-treatment). […]
# [1] = 100 mg/kg i.p., 4 h EEG recording
# [2] = 30 and 100 mg/kg i.p., 4 h EEG recording
smiles,measurement,setting,value
CCCCCn1cc(C(=O)N2CCN(C(=O)OC(C)(C)C)CC2)c2ccccc21 [SB2193],"SWD incidence, raw count data, compared to vehicle","30 mg/kg i.p., 4 h EEG recording",significantly increased
same,"SWD average duration, raw data, compared to vehicle",[1],significantly increased
same,"average SWD duration, normalized to baseline, compared to vehicle",[1],increased
same,SWD frequency,"10, 30, 100 mg/kg i.p., 4 h EEG recording",No changes
same,effects on SWDs in the first hour following administration,"10, 30, 100 mg/kg i.p., first hour",No significant effects
same,"SWD (total) duration, normalized to baseline, compared to vehicle",[2],significantly increased
same,"SWD incidence, normalized to baseline, compared to vehicle",[2],significantly increased
same,"SWD total duration, raw data, compared to vehicle",[2],significantly increased
